These are literature values, as cited in US12691049B2, “Process for producing hair treatment products by mixing organic C1-C6-alkoxysilanes and alkalizing agents in specific molar ratios” (Henkel AG & Co. KGaA, priority 2021, dated 2026).

As to `CCN(Cc1cccc(S(=O)(=O)[O-])c1)c1ccc(C(=C2C=CC(=[N+](CC)Cc3cccc(S(=O)(=O)[O-])c3)C=C2)c2ccccc2S(=O)(=O)[O-])cc1.[Na+].[Na+]` [Acid Blue 9], the water solubility entry (25° C.) is “more than 20 wt %”. On to `O=S(=O)([O-])c1ccc(N=Nc2c(O)ccc3ccccc23)cc1.[Na+]` [Acid Orange 7, sodium salt of 4-[(2-hydroxy-1-naphthyl)azo]benzene sulphonate], for which the solubility in water result (25° C.) is on record as “more than 7 g/L”.

Turning to `Nc1cc(S(=O)(=O)[O-])cc2cc(S(=O)(=O)[O-])c(N=Nc3ccccc3)c(O)c12.[Na+].[Na+]` [Acid Red 33, disodium salt of 5-amino-4-hydroxy-3-(phenylazo)-naphthalene-2,7-disulfonate], under “25° C.”, the solubility in water was 2.5 mg/mL. For `O=C([O-])c1c(Cl)c(Cl)c(Cl)c(Cl)c1-c1c2cc(Br)c(=O)c(Br)c-2oc2c(Br)c([O-])c(Br)cc12.[Na+].[Na+]` [Acid Red 92, disodium salt of 3,4,5,6-tetrachloro-2-(1,4,5,8-tetrabromo-6-hydroxy-3-oxanthene-9-yl) benzoic acid], the solubility in water entry (25° C.) is reported as “greater than 10 g/L”.

`O=C([O-])C1=NN(c2ccc(S(=O)(=O)[O-])cc2)C(=O)C1N=Nc1ccc(S(=O)(=O)[O-])cc1.[Na+].[Na+].[Na+]` (stereo not drawn) [Acid Yellow 23, trisodium salt of 4,5-dihydro-5-oxo-1-(4-sulfophenyl)-4-((4-sulfophenyl)azo)-1H-pyrazole-3-carboxylic acid]: the “solubility in water (in words)” value (at 25° C.) is reported as “readily soluble in water”. On to “mixture of the sodium salts of mono and sis-sulfonic acids of 2-(2-quinolyl)-1H-indene-1,3(2H)-dione [Acid Yellow 3]”, for which the solubility in water (25° C.) was 20 mg/mL.
